In PubChem BioAssay (NCI):
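Where inhibition never reached the appropriate level, the endpoint shown equals the highest concentration tested. Otherwise, values were interpolated linearly from a five-concentration, 48-hour dose response in 96-well plates. At the GI50, growth is halved. At the TGI there is no net growth.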

How the values were obtained:
Assay in all cases: DTP human tumour cell line panel, 48 h
786-0 renal = test system: 786-0 renal
A498 renal = test system: A498 renal
A549 NSCLC = test system: A549 NSCLC
ACHN renal = test system: ACHN renal
BT-549 breast = test system: BT-549 breast
CAKI-1 renal = test system: CAKI-1 renal
CCRF-CEM leukemia = test system: CCRF-CEM leukemia
COLO 205 colon = test system: COLO 205 colon
DU-145 prostate = test system: DU-145 prostate
EKVX NSCLC = test system: EKVX NSCLC
HCC-2998 colon = test system: HCC-2998 colon
HCT-116 colon = test system: HCT-116 colon
HCT-15 colon = test system: HCT-15 colon
HL-60(TB) leukemia = test system: HL-60(TB) leukemia
HOP-62 NSCLC = test system: HOP-62 NSCLC
HOP-92 NSCLC = test system: HOP-92 NSCLC
HS 578T breast = test system: HS 578T breast
HT29 colon = test system: HT29 colon
IGROV1 ovarian = test system: IGROV1 ovarian
K-562 leukemia = test system: K-562 leukemia
KM12 colon = test system: KM12 colon
LOX IMVI melanoma = test system: LOX IMVI melanoma
M14 melanoma = test system: M14 melanoma
MALME-3M melanoma = test system: MALME-3M melanoma
MCF7 breast = test system: MCF7 breast
MDA-MB-231 breast = test system: MDA-MB-231 breast
MDA-MB-435 = test system: MDA-MB-435
MOLT-4 leukemia = test system: MOLT-4 leukemia
NCI-H226 lung = test system: NCI-H226 lung
NCI-H23 lung = test system: NCI-H23 lung
NCI-H460 lung = test system: NCI-H460 lung
NCI-H522 lung = test system: NCI-H522 lung
NCI/ADR-RES ovarian = test system: NCI/ADR-RES ovarian
OVCAR-3 ovarian = test system: OVCAR-3 ovarian
OVCAR-4 ovarian = test system: OVCAR-4 ovarian
OVCAR-5 ovarian = test system: OVCAR-5 ovarian
OVCAR-8 ovarian = test system: OVCAR-8 ovarian
PC-3 prostate = test system: PC-3 prostate
RPMI-8226 leukemia = test system: RPMI-8226 leukemia
RXF 393 renal = test system: RXF 393 renal
SF-268 CNS = test system: SF-268 CNS
SF-295 CNS = test system: SF-295 CNS
SF-539 CNS = test system: SF-539 CNS
SK-MEL-2 melanoma = test system: SK-MEL-2 melanoma
SK-MEL-28 melanoma = test system: SK-MEL-28 melanoma
SK-MEL-5 melanoma = test system: SK-MEL-5 melanoma
SK-OV-3 ovarian = test system: SK-OV-3 ovarian
SN12C renal = test system: SN12C renal
SNB-19 CNS = test system: SNB-19 CNS
SNB-75 CNS = test system: SNB-75 CNS
SR leukemia = test system: SR leukemia
SW-620 colon = test system: SW-620 colon
T-47D breast = test system: T-47D breast
TK-10 renal = test system: TK-10 renal
U251 CNS = test system: U251 CNS
UACC-257 melanoma = test system: UACC-257 melanoma
UACC-62 melanoma = test system: UACC-62 melanoma
UO-31 renal = test system: UO-31 renal

Cn1ccnc1C(=O)/C=C/c1ccc(C(=O)Nc2ccccc2F)cc1
GI50 (786-0 renal): 1.69 µM | TGI (786-0 renal): 3.32 µM | GI50 (A498 renal): 2.41 µM | TGI (A498 renal): 8.21 µM | GI50 (A549 NSCLC): 3.01 µM | TGI (A549 NSCLC): 13.2 µM | GI50 (ACHN renal): 2.01 µM | TGI (ACHN renal): 4.15 µM | GI50 (BT-549 breast): 1.77 µM | TGI (BT-549 breast): 4.21 µM | GI50 (CAKI-1 renal): 1.04 µM | TGI (CAKI-1 renal): 4.33 µM | GI50 (CCRF-CEM leukemia): 1.18 µM | TGI (CCRF-CEM leukemia): 7.54 µM | GI50 (COLO 205 colon): 2.74 µM | TGI (COLO 205 colon): 6.67 µM | GI50 (DU-145 prostate): 1.64 µM | TGI (DU-145 prostate): 3.32 µM | GI50 (EKVX NSCLC): 2.9 µM | TGI (EKVX NSCLC): 11.5 µM | GI50 (HCC-2998 colon): 2.34 µM | TGI (HCC-2998 colon): 4.67 µM | GI50 (HCT-116 colon): 0.862 µM | TGI (HCT-116 colon): 2.35 µM | GI50 (HCT-15 colon): 1.33 µM | TGI (HCT-15 colon): 4.06 µM | GI50 (HL-60(TB) leukemia): 1.6 µM | TGI (HL-60(TB) leukemia): 4.33 µM | GI50 (HOP-62 NSCLC): 4.27 µM | TGI (HOP-62 NSCLC): 17.1 µM | GI50 (HOP-92 NSCLC): 1.9 µM | TGI (HOP-92 NSCLC): 7.07 µM | GI50 (HS 578T breast): 3.02 µM | TGI (HS 578T breast): 15.4 µM | GI50 (HT29 colon): 2.49 µM | TGI (HT29 colon): 6.68 µM | GI50 (IGROV1 ovarian): 2.12 µM | TGI (IGROV1 ovarian): 5.05 µM | GI50 (K-562 leukemia): 0.372 µM | TGI (K-562 leukemia): > 100 µM | GI50 (KM12 colon): 1.89 µM | TGI (KM12 colon): 3.82 µM | GI50 (LOX IMVI melanoma): 0.636 µM | TGI (LOX IMVI melanoma): 2.24 µM | GI50 (M14 melanoma): 1.7 µM | TGI (M14 melanoma): 3.81 µM | GI50 (MALME-3M melanoma): 1.93 µM | TGI (MALME-3M melanoma): 4.58 µM | GI50 (MCF7 breast): 1.82 µM | TGI (MCF7 breast): 6.63 µM | GI50 (MDA-MB-231 breast): 3.24 µM | TGI (MDA-MB-231 breast): 10.5 µM | GI50 (MDA-MB-435): 2.09 µM | TGI (MDA-MB-435): 5.04 µM | GI50 (MOLT-4 leukemia): 2.38 µM | TGI (MOLT-4 leukemia): 6.41 µM | GI50 (NCI-H226 lung): 2.63 µM | TGI (NCI-H226 lung): 10.3 µM | GI50 (NCI-H23 lung): 2.85 µM | TGI (NCI-H23 lung): 9.43 µM | GI50 (NCI-H460 lung): 1.94 µM | TGI (NCI-H460 lung): 5.43 µM | GI50 (NCI-H522 lung): 2.66 µM | TGI (NCI-H522 lung): 8.76 µM | GI50 (NCI/ADR-RES ovarian): 3.29 µM | TGI (NCI/ADR-RES ovarian): 22.5 µM | GI50 (OVCAR-3 ovarian): 2 µM | TGI (OVCAR-3 ovarian): 4.57 µM | GI50 (OVCAR-4 ovarian): 2.76 µM | TGI (OVCAR-4 ovarian): 12.8 µM | GI50 (OVCAR-5 ovarian): 2.42 µM | TGI (OVCAR-5 ovarian): 6.42 µM | GI50 (OVCAR-8 ovarian): 3.68 µM | TGI (OVCAR-8 ovarian): 21.6 µM | GI50 (PC-3 prostate): 1.89 µM | TGI (PC-3 prostate): 4.47 µM | GI50 (RPMI-8226 leukemia): 0.567 µM | TGI (RPMI-8226 leukemia): 2.82 µM | GI50 (RXF 393 renal): 1.75 µM | TGI (RXF 393 renal): 3.63 µM | GI50 (SF-268 CNS): 2.46 µM | TGI (SF-268 CNS): 9.16 µM | GI50 (SF-295 CNS): 4.6 µM | TGI (SF-295 CNS): 16.3 µM | GI50 (SF-539 CNS): 1.75 µM | TGI (SF-539 CNS): 4.24 µM | GI50 (SK-MEL-2 melanoma): 6.25 µM | TGI (SK-MEL-2 melanoma): 28.1 µM | GI50 (SK-MEL-28 melanoma): 2.04 µM | TGI (SK-MEL-28 melanoma): 4.59 µM | GI50 (SK-MEL-5 melanoma): 2.14 µM | TGI (SK-MEL-5 melanoma): 4.56 µM | GI50 (SK-OV-3 ovarian): 6.53 µM | TGI (SK-OV-3 ovarian): 20.6 µM | GI50 (SN12C renal): 2.63 µM | TGI (SN12C renal): 9.56 µM | GI50 (SNB-19 CNS): 2.06 µM | TGI (SNB-19 CNS): 5.66 µM | GI50 (SNB-75 CNS): 1.36 µM | TGI (SNB-75 CNS): 8.03 µM | GI50 (SR leukemia): 0.304 µM | TGI (SR leukemia): 2.34 µM | GI50 (SW-620 colon): 1.76 µM | TGI (SW-620 colon): 6.29 µM | GI50 (T-47D breast): 2.9 µM | TGI (T-47D breast): 17.8 µM | GI50 (TK-10 renal): 3.84 µM | TGI (TK-10 renal): 15.9 µM | GI50 (U251 CNS): 1.3 µM | TGI (U251 CNS): 3.29 µM | GI50 (UACC-257 melanoma): 3.51 µM | TGI (UACC-257 melanoma): 14 µM | GI50 (UACC-62 melanoma): 1.98 µM | TGI (UACC-62 melanoma): 4.47 µM | GI50 (UO-31 renal): 1.38 µM | TGI (UO-31 renal): 2.67 µM
